Data as given in patent US11564909B2, “Methods and compositions for oral pilocarpine liquid” (ROMEG Therapeutics LLC, priority 2020, dated 2023).

Columns and labels:
[1] = in vitro; details: human, Caco-2
Experimental: (§1) The objective of this study was to evaluate the bidirectional Caco-2 permeability of three formulations of test article Pilocarpine at three pH levels (pH 5.7, 6.5, 7.4) using calibration curve quantitation.
(§2) Samples were analyzed by LC/MS/MS using an Waters Xevo TQ mass spectrometer coupled with an Acuity HPLC and a CTC PAL chilled autosampler, all controlled by MassLynx software (Waters). After separation on a C18 reverse phase (Waters Acquity HSS T3 2.1×50 mm […]) using an acetonitrile-water gradient system, peaks were analyzed by mass spectrometry (MS) using ESI ionization in MRM mode.
(§3) Tables 16-17 show the HPLC gradients used and the experiment conditions of the Caco-2 permeability test, respectively.
(§4) Caco-2 cells grown in tissue culture flasks were trypsinized, suspended in medium, and the suspensions were applied to wells of a Millipore 96 well plate. The cells were allowed to grow and differentiate for three weeks, feeding at 2-day intervals.
(§5) For Apical to Basolateral (A→B) permeability, the test article was added to the apical (A) side and amount of permeation was determined on the basolateral (B) side; for Basolateral to Apical (B→A) permeability, the test article was added to the B side and the amount of permeation was determined on the A side. […] Caco-2 cells were incubated with test articles in these buffers for 2 hours, and at the end of the assay, donor and receiver side solution samples were collected, quenched by 100% methanol containing an internal standard and centrifuged at 5000 rpm for 10 minutes at 4° C. Following centrifugation, the supernatant for donor and receiver side samples were analyzed by LC-MS/MS.
(§6) Data is expressed as permeability (Papp):
(§7) [formula] dQ/dt is rate of permeation, C0 is initial concentration of test article, and A is the area of monolayer.
(§8) In bidirectional permeability studies, Efflux Ratio (Re) is also calculated:
(§9) [formula] Re>2 indicates a potential substrate for P-gp or other active efflux transporters. The donor, dosing and receiver side sample concentrations were calculated based on the calibration curve prepared in buffer matrix in the range of 1-20,000 nM.

[2] = tested on: Caco-2 cells; experiment: in vitro
Experimental: as §1, §2, §3, §4, §5, §6, §7, §8, §9

Row | SMILES | Papp A→B at 2 h, 10 μM [1] [×10⁻⁶ cm/s] | Papp B→A at 2 h, 10 μM [1] [×10⁻⁶ cm/s] | efflux ratio at 2 h, 10 μM [1] | Comments (permeability class) [2] | BCS permeability classification [2]
1 | CNC(=C[N+](=O)[O-])NCCSCc1ccc(CN(C)C)o1 [Ranitidine] | 0.585 | 3.13 | 5.41 | Low permeability | 
2 | CC[C@@H]1C(=O)OC[C@@H]1Cc1cncn1C [pilocarpine, (3S,4R)-3-Ethyl-4-((1-methyl-1H-imidazol-5-yl)methyl)dihydrofuran-2(3H)-one] |  |  |  |  | high permeability
3 | COCCc1ccc(OCC(O)CNC(C)C)cc1 (stereo not drawn) [Metoprolol] | 19.4 | 42.7 | 2.22 | High permeability | 
